pIC50: −log10 of the molar value. Where “and” joins values, the source holds several entries; their conditions need not be identical. Identical values can stand only once.
Columns and labels:
human ALK5 [1] = target: T1, human ALK5 (Homo sapiens, UniProt P36897); assay: ALK5 Enzyme Assay 2 (fluorescence polarisation probe displacement); format: binding; set-up: 6His tagged human ALK5 (residues162-503) was grown and purified from insect cells; 6His; made in house; host or cells: insect cells; details: for IC50: read-out: EAA2: activity (μM) using Enzyme Assay 2
T1 sequence (P36897 162-503): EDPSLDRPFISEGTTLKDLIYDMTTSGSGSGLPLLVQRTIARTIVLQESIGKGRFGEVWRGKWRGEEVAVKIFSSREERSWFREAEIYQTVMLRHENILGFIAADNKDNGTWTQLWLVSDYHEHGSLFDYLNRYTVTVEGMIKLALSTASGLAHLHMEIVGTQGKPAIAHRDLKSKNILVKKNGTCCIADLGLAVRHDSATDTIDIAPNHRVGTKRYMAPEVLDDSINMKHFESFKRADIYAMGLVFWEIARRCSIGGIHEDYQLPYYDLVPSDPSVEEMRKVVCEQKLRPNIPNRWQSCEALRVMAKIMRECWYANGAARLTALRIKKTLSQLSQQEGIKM
Method in brief: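 Recombinant ALK5 (3 μg/mL) incubated with test compound in 50 mM HEPES pH7.4, 10 mM MgCl2, 1 mM DTT, 0.01% CHAPS. Displacement of a fluorescent quinazoline-based ALK5 probe (50 nM final) in presence of 1 μM ATP read by fluorescence polarisation.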

human ALK5 [2] = target: T1, human ALK5; assay: ALK5 Enzyme Assay 1; format: biochemical; set-up: 6His tagged ALK5 protein (amino acids 162-503) expressed in insect cells; 6His; made in house; host or cells: insect cells
Method: This assay measures the ability of a compound to bind to and inhibit the activity of ALK5 protein in vitro. […] Assay measurements were performed in assay buffer comprising 60 mM HEPES pH 7.4, 3 mM MgCl2, 3 mM MnCl2, 3 μM Na orthovanadate, 1.2 mM DTT and 0.05% PEG2000. […] Reactions were performed in the presence of 200 μg/mL casein (Sigma-Aldrich C4765-10ML), 200 ng/mL ALK5, 0.5 μM ATP (Sigma-Aldrich A7699), 1 μCi/mL γ-33P ATP. Following addition of casein, ATP and compound, reactions were initiated by adding ALK5 enzyme and reactions run for 90 minutes. After incubation reactions were terminated by addition of 20 μL per well of 50% orthophosphoric acid. 20 minutes after addition of 70% v/v TCA, precipitated protein was transferred to GF/C 96 well plates using a Tomtec harvester with 1.5% orthophosphoric acid. […] All reactions were performed under linear kinetics.

[3] = read-out: EAA: activity (μM) using Enzyme Assay 1

Row | SMILES | IC50 (human ALK5 [1]) [µM] | IC50 (human ALK5 [2]; [3]) | also measured
1 | COc1cc(Nc2cc(Oc3ccc(C)nc3C)ccn2)cc(OC)c1OC [Example 7, 4-(2,6-Dimethylpyridin-3-yl)oxy-N-(3,4,5-trimethoxyphenyl)-pyridin-2-amine] |  |  | pIC50 (human ALK5 [1]): 7.46; IC50 (human ALK5 [2]; EAA: activity (μM) using Enzyme Assay 1): 0.0206 µM
2 | Cc1cc(Oc2ccnc(Nc3ccc(F)cc3)c2)c(-c2ccccn2)nc1C [Example 10, 4-(5,6-Dimethyl-2-pyridin-2-yl-pyridin-3-yl)oxy-N-(4-fluorophenyl)pyridin-2-amine] | 0.0883 | 0.017 µM | 
3 | Cc1cc(Oc2ccnc(Nc3cccc(Cl)c3)c2)c(-c2ccccn2)nc1C [Example 12, N-(3-Chlorophenyl)-4-(5,6-dimethyl-2-pyridin-2-yl-pyridin-3-yl)-oxy-pyridin-2-amine] | 0.0418 | 0.0073 µM | 
4 | Cc1cc(Oc2ccnc(Nc3ccccn3)c2)c(-c2ccccn2)nc1C [Example 14, 4-(5,6-Dimethyl-2-pyridin-2-yl-pyridin-3-yl)oxy-N-pyridin-2-yl-pyridin-2-amine] |  | 0.0255 µM and 0.00856 µM | 
5 | Cc1cc(Oc2ccnc(Nc3ccccc3)c2)c(-c2ccccn2)nc1C [Example 24, 4-(5,6-Dimethyl-2-pyridin-2-yl-pyridin-3-yl)oxy-N-phenyl-pyridin-2-amine] |  | 0.00417 µM | 
6 | Cc1cc(Oc2ccnc(Nc3ccn(C)n3)c2)c(-c2ccccn2)nc1C [Example 39, 4-(5,6-Dimethyl-2-pyridin-2-yl-pyridin-3-yl)oxy-N-(1-methylpyrazol-3-yl)-pyridin-2-amine] |  | 0.0935 µM | 
7 | Cc1cc(Oc2ccnc(Nc3ccc4cc[nH]c4c3)c2)c(-c2ccccn2)nc1C [Example 40, N-[4-(5,6-Dimethyl-2-pyridin-2-yl-pyridin-3-yl)-oxypyridin-2-yl]-1H-indol-6-amine] |  | 1.14 µM and 1.11 µM | 
8 | Cc1cc(Oc2ccnc(Nc3ccccc3Cl)c2)c(-c2ccccn2)nc1C [Example 194B, N-(2-Chlorophenyl)-4-(5,6-dimethyl-2-pyridin-2-ylpyridin-3-yl)-oxypyridin-2-amine] |  | 2.8 µM | 
9 | Cc1ccc(Oc2ccnc(Nc3ccc(C(=O)O)cc3)c2)c(C)n1 [Example 205, Lithium 4-{[4-(2,6-dimethylpyridin-3-yl)oxypyridin-2-yl]-amino}benzoate] |  | 0.15 µM | 
10 | Cc1ccc(Oc2ccnc(Nc3cccc(CN4CCN(C(=O)OC(C)(C)C)CC4)c3)c2)c(C)n1 [Example 207, tert-Butyl 4-[(3-{[4-(2,6-dimethylpyridin-3-yl)oxypyridin-2-yl]-amino}phenyl)methyl]piperazine-1-carboxylate] | 0.0384 |  | 
11 | Cc1ccc(Oc2ccnc(Nc3cccc(CN4CCN(C(=O)CCNC(=O)OC(C)(C)C)CC4)c3)c2)c(C)n1 [Example 208, tert-Butyl N-(3-{4-[(3-{[4-(2,6-dimethylpyridin-3-yl)oxypyridin-2-yl]amino}phenyl)methyl]piperazin-1-yl}-3-oxopropyl)carbamate] | 0.0204 |  | 
12 | Cc1ccc(Oc2ccnc(Nc3cccc(C(=O)O)c3)c2)c(C)n1 [Example 210, Sodium 3-{[4-(2,6-dimethylpyridin-3-yl)oxypyridin-2-yl]amino}benzoate] | 0.0392 |  | 
13 | Cc1ccc(Oc2ccnc(Nc3ccc(C(=O)NCCN4CCS(=O)(=O)CC4)cc3)c2)c(C)n1 [Example 215, 4-{[4-(2,6-Dimethylpyridin-3-yl)oxypyridin-2-yl]amino}-N-[2-(1,1-dioxo-1,4-thiazinan-4-yl)ethyl]benzamide] | 0.0362 |  | 
14 | Cc1ccc(Oc2ccnc(Nc3ccc(C(=O)NCCn4cccc4)cc3)c2)c(C)n1 [Example 216, 4-{[4-(2,6-Dimethylpyridin-3-yl)oxypyridin-2-yl]amino}-N-(2-pyrrol-1-ylethyl)benzamide] | 0.108 |  | 
15 | Cc1ccc(Oc2ccnc(Nc3ccc(C(=O)NCCN4CCCCC4)cc3)c2)c(C)n1 [Example 217, 4-{[4-(2,6-Dimethylpyridin-3-yl)oxypyridin-2-yl]amino}-N-(2-piperidin-1-ylethyl)benzamide] | 0.0121 |  | 
16 | Cc1ccc(Oc2ccnc(Nc3ccc(C(=O)NCCN4CC5CCC(C4)O5)cc3)c2)c(C)n1 [Example 218, 4-{[4-(2,6-Dimethylpyridin-3-yl)oxypyridin-2-yl]amino}-N-[2-(8-oxa-3-azabicyclo[3.2.1]octan-3-yl)ethyl]benzamide] | 0.0495 |  | 
17 | Cc1ccc(Oc2ccnc(Nc3ccc(C(=O)NCCN4CCC(F)(F)CC4)cc3)c2)c(C)n1 [Example 219, N-[2-(4,4-Difluoropiperidin-1-yl)ethyl]-4-{[4-(2,6-dimethyl-pyridin-3-yl)oxypyridin-2-yl]amino}benzamide] | 0.108 |  | 
18 | Cc1ccc(Oc2ccnc(Nc3ccc(C(=O)NCCN4CCOCC4)cc3)c2)c(C)n1 [Example 220, 4-{[4-(2,6-Dimethylpyridin-3-yl)oxypyridin-2-yl]amino}-N-(2-morpholin-4-ylethyl)benzamide] | 0.0675 |  | 

Further lines, with some results ahead:

Row | IC50 (human ALK5 [1]) [µM] | IC50 (human ALK5 [2]; [3]) | SMILES | also measured
19 | 0.089 | 0.0783 µM | COc1cc(Nc2cc(Oc3cccnc3-c3cccc(C)n3)ccn2)cc(OC)c1OC [Example 1, 4-[2-(6-Methylpyridin-2-yl)pyridin-3-yl]oxy-N-(3,4,5-trimethoxy-phenyl)pyridin-2-amine] | 
20 | 0.0723 | 0.0337 µM | COc1cc(Nc2cc(Oc3cc(C)c(C)nc3-c3cccc(C)n3)ccn2)cc(OC)c1OC [Example 2, 4-[5,6-Dimethyl-2-(6-methylpyridin-2-yl)pyridin-3-yl]oxy-N-(3,4,5-trimethoxy-phenyl)pyridin-2-amine] | 
21 | 0.0459 | 0.0274 µM | CCc1ccc(Oc2ccnc(Nc3cc(OC)c(OC)c(OC)c3)c2)c(-c2cccc(C)n2)n1 [Example 3, 4-[6-Ethyl-2-(6-methylpyridin-2-yl)pyridin-3-yl]oxy-N-(3,4,5-trimethoxy-phenyl)pyridin-2-amine] | 
22 | 0.056 | 0.00951 µM | COc1cc(Nc2cc(Oc3cc(C)c(C)nc3-c3nc(C)c(C)s3)ccn2)cc(OC)c1OC [Example 4, {4-[2-(4,5-Dimethyl-thiazol-2-yl)-5,6-dimethyl-pyridin-3-yloxy]-pyridin-2-yl}-(3,4,5-trimethoxy-phenyl)-amine] | 
23 | 0.0169 | 0.0153 µM | COc1cc(Nc2cc(Oc3ccc(C)nc3-c3cnn(C)c3)ccn2)cc(OC)c1OC [Example 5, 4-[6-Methyl-2-(1-methylpyrazol-4-yl)pyridin-3-yl]oxy-N-(3,4,5-trimethoxy-phenyl)pyridin-2-amine] | 
24 | 1.97 | 5.5 µM | COc1cc(Nc2cc(Oc3cccnc3)ccn2)cc(OC)c1OC [Example 6, 4-Pyridin-3-yloxy-N-(3,4,5-trimethoxyphenyl)pyridin-2-amine] | 
25 | 0.294 | 0.174 µM | COc1cc(Nc2cc(Oc3ccc(C)nc3)ccn2)cc(OC)c1OC [Example 8, 4-(6-Methylpyridin-3-yl)oxy-N-(3,4,5-trimethoxyphenyl)-pyridin-2-amine] | 
26 | 0.187 | 0.114 µM | COc1cc(Nc2cc(Oc3cccnc3C)ccn2)cc(OC)c1OC [Example 9, 4-(2-Methylpyridin-3-yl)oxy-N-(3,4,5-trimethoxyphenyl)-pyridin-2-amine] | 
27 |  | 0.454 µM | COc1ccc(NC(C)=O)cc1Nc1cc(Oc2cc(C)c(C)nc2-c2ccccn2)ccn1 [Example 73, N-(3-{[4-(5,6-Dimethyl-2-pyridin-2-ylpyridin-3-yl)oxypyridin-2-yl]-amino}-4-methoxyphenyl)acetamide] | 
28 |  | 0.615 µM | COc1cc(Nc2cc(Oc3ccc(C)nc3-c3ccnc4ccccc34)ccn2)cc(OC)c1OC [Example 170, 4-[6-Methyl-2-(quinolin-4-yl)pyridin-3-yloxy]-N-(3,4,5-trimethoxyphenyl)pyridin-2-amine] | 
29 | 0.00393 |  | Cc1cc(Oc2ccnc(Nc3cccc(O)c3)c2)c(-c2ccccn2)nc1C [Example 201, 3-{[4-(5,6-Dimethyl-2-pyridin-2-ylpyridin-3-yl)oxypyridin-2-yl]-amino}phenol] | 
30 | 0.0279 |  | COC(=O)c1cccc(Nc2cc(Oc3cc(C)c(C)nc3-c3ccccn3)ccn2)c1 [Example 202, Methyl 3-{[4-(5,6-dimethyl-2-pyridin-2-ylpyridin-3-yl)oxypyridin-2-yl]amino}benzoate] | 
31 | 3.02 |  | COc1cc(Nc2cc(Oc3cccnc3-c3ccccc3C(N)=O)ccn2)cc(OC)c1OC [Example 221, 2-(3-{2-[(3,4,5-Trimethoxyphenyl)amino]pyridin-4-yl}oxypyridin-2-yl)benzamide] | 
